# Source: US12214092B2, “Systems and methods for treating biological fluids” (Cerus Corporation, priority 2017, dated 2025)
# What was measured:
# [1] = Amotosalen concentration post-UVA in FCV-spiked platelets, HPLC; format: physicochemical
# [2] = S-59 and photoproducts post-treatment in platelets in PAS/plasma, 150 μM amotosalen, liquid chromatography mass spectrometry; format: physicochemical
# Source text: As mass spec extinction coefficients for photoproducts were assumed identical as S-59 extinction coefficients, only relative difference in concentrations (μM) between samples are compared in the following Table 9b, rather than absolute concentrations.
# E. coli [3] = assay: Amotosalen and UV light (265-385 nm LEDs) treatment of E. coli in plasma, six-well plates, colony forming unit assay; format: cell-based; conditions: for Log reduction from S-59 / Log reduction total: ~3 J/cm^2, plasma
# Source text: This system comprised single arrays facing (e.g., opposing) a platform positioned for the illumination of biological fluids placed on the platform (see e.g., FIG. 5). System controls provided for adjustment of the LEDs during treatment of the biological fluid samples, controlling both the timing and intensity of illumination by the LEDs to achieve a desired light UV light dose. Evaluation of photochemical conversion, photoproduct formation, pathogen inactivation, and plasma and/or platelet quality parameters are performed for each light source wavelength as described previously. In one study using the device, photochemical inactivation of various bacteria were tested for each of the above-referenced LEDs together with amotosalen. The bacteria included E. coli (Gram negative), S. epidermidis (Gram positive), and P. acnes (anaerobe). As there are known germicidal effects of ultraviolet light with wavelengths in the UVC and UVB range, the study was controlled to determine for each LED wavelength the total inactivation levels, as well as inactivation levels specifically resulting from the UV light (without added amotosalen) or the photochemical treatment process itself.
# E. coli [4] = assay: Amotosalen and two sequential UV light doses (UVC + UVA) treatment of E. coli in plasma, colony forming unit assay; format: cell-based; conditions: 15 μM amotosalen, titer pre-UV 6.57; for Titer Post-Second: ~3 J/cm^2 each
# Description: Additionally, any two or more wavelengths of narrow bandwidth light are evaluated in combination, such as for example, photochemical treatment of a biological fluid using amotosalen and ultraviolet light of a first peak wavelength and ultraviolet light of a second peak wavelength, sequentially or concurrently. More specifically, in one example pathogen inactivation of E. coli (Gram negative) and S. epidermidis (Gram positive) bacteria was evaluated using amotosalen and the device with LEDs of wavelengths described in Example 8. […] The spiked plasma units were divided into control (no amotosalen+UV light) and treatment (with amotosalen) conditions, with amotosalen used at 15 μM concentration. The units were aliquoted into six-well plates (5 mL/well) for illumination. Pre-illumination samples were taken and control bacterial titers determined using standard colony forming unit assay. […] Data for pre-illumination titers, post-first illumination titer, post-second illumination titer, and post-treatment (after second illumination) residual amotosalen (S-59) are shown in the following Tables 40-41.
# feline calicivirus (FCV) = conditions: previously reported (Irsch et al. 2011), 150 μM S-59 with broad spectrum UVA; cited from earlier work
# [5] = Amotosalen concentration pre- and post-UV in platelets (plasma or PAS/plasma), 340 nm ~7.2 J/cm^2, HPLC
# Description: A study was performed to evaluate the photoconversion of amotosalen in platelets in 10000 plasma, as well as function of the platelets over 7 days (Day 3, Day 7) following photochemical treatment using the 340 nm device of the present disclosure. Multiple donor platelet units in 10000 plasma (5 units, ˜278-391 mL) were pooled and split into 5 units of ˜285 mL each, to be used as an untreated control, or treated with amotosalen at different concentrations, with ultraviolet A illumination using the 340 nm device. Amotosalen was added to a concentration of 30, 60, 90 or 110 μM, then pre-illumination (pre-UV) samples were removed for analysis, and the remainder of the units subjected to illumination at ˜7.2 J/cm^2. Post-illumination (Post-UV) samples were then removed for post-treatment analysis.
compound,measurement,setting,value
"Cc1oc2c(C)c3oc(=O)cc(C)c3cc2c1COCCN [S-59, 3-(2-aminoethoxymethyl)-2,5,9-trimethylfuro[3,2-g]chromen-7-one]",S-59 post-UVA concentration,"[1]; 15 μM, 4 hr incubation, 340 nm ~3 J/cm^2",0.6 µM
same,S-59 post-UVA concentration,"[1]; 15 μM, 8 hr incubation, 340 nm ~3 J/cm^2",0.6 µM
same,S-59 post-UVA concentration,"[1]; 15 μM, 8 hr, 340 nm ~3 J/cm^2 Top Only",<1 µM
same,S-59 post-UVA concentration,"[1]; 15 μM, 8 hr, 340 nm ~3 J/cm^2 Top/Bottom",<1 µM
same,S-59 post-UVA concentration,"[1]; 15 μM, 24 hr incubation, 340 nm ~3 J/cm^2",0.6 µM
same,S-59 post-UVA concentration,"[1]; 15 μM, 24 hr, 340 nm ~3 J/cm^2 Top Only",<1 µM
same,S-59 post-UVA concentration,"[1]; 15 μM, 24 hr, 340 nm ~3 J/cm^2 Top/Bottom",<1 µM
same,S-59 post-UVA concentration,"[1]; 30 μM, 4 hr incubation, 340 nm ~3 J/cm^2",0.8 µM
same,S-59 post-UVA concentration,"[1]; 30 μM, 8 hr incubation, 340 nm ~3 J/cm^2",0.9 µM
same,S-59 post-UVA concentration,"[1]; 30 μM, 8 hr, 340 nm ~3 J/cm^2 Top Only",<1 µM
same,S-59 post-UVA concentration,"[1]; 30 μM, 8 hr, 340 nm ~3 J/cm^2 Top/Bottom",<1 µM
same,S-59 post-UVA concentration,"[1]; 30 μM, 24 hr incubation, 340 nm ~3 J/cm^2",0.8 µM
same,S-59 post-UVA concentration,"[1]; 30 μM, 24 hr, 340 nm ~3 J/cm^2 Top Only",<1 µM
same,S-59 post-UVA concentration,"[1]; 30 μM, 24 hr, 340 nm ~3 J/cm^2 Top/Bottom",<1 µM
same,S-59 post-UVA concentration,"[1]; 90 μM, 4 hr incubation, 340 nm ~3 J/cm^2",3.8 µM
same,S-59 post-UVA concentration,"[1]; 90 μM, 8 hr incubation, 340 nm ~3 J/cm^2",0.9 µM
same,S-59 post-UVA concentration,"[1]; 90 μM, 24 hr incubation, 340 nm ~3 J/cm^2",3.3 µM
same,S-59 post-UVA concentration,"[1]; 150 μM, 0 hr incubation, 340 nm, more than twice ~3 J/cm^2",2.1 µM
same,S-59 post-UVA concentration,"[1]; 150 μM, 0 hr, 340 nm Top Only",10.8 µM
same,S-59 post-UVA concentration,"[1]; 150 μM, 0 hr, 340 nm Top/Bottom",7.7 µM
same,"Post-illumination concentration (relative, LC-MS)","[2]; 340 nm, ~3.6 J/cm^2",21.3 µM
same,"Post-illumination concentration (relative, LC-MS)","[2]; 340 nm, ~7.2 J/cm^2",4.8 µM
same,"Post-illumination concentration (relative, LC-MS)","[2]; 340 nm, ~10.8 J/cm^2",2.5 µM
same,"Post-illumination concentration (relative, LC-MS)","[2]; INT100, ~3.6 J/cm^2",37.0 µM
same,"Post-illumination concentration (relative, LC-MS)","[2]; INT100, ~7.2 J/cm^2",11.6 µM
same,"Post-illumination concentration (relative, LC-MS)","[2]; INT100, ~10.8 J/cm^2",12.0 µM
same,Log reduction from S-59,"E. coli [3]; 15 μM amotosalen, 265 nm",0 log
same,Log reduction total,"E. coli [3]; 15 μM amotosalen, 265 nm",4.52 log
same,Log reduction from S-59,"E. coli [3]; 15 μM amotosalen, 280 nm",0 log
same,Log reduction total,"E. coli [3]; 15 μM amotosalen, 280 nm",4.52 log
same,Log reduction from S-59,"E. coli [3]; 15 μM amotosalen, 310 nm",1.15 log
same,Log reduction total,"E. coli [3]; 15 μM amotosalen, 310 nm",4.52 log
same,Log reduction from S-59,"E. coli [3]; 15 μM amotosalen, 325 nm",3.81 log
same,Log reduction total,"E. coli [3]; 15 μM amotosalen, 325 nm",4.52 log
same,Log reduction from S-59,"E. coli [3]; 15 μM amotosalen, 340 nm",2.94 log
same,Log reduction total,"E. coli [3]; 15 μM amotosalen, 340 nm",4.52 log
same,Log reduction from S-59,"E. coli [3]; 15 μM amotosalen, 365 nm",2.76 log
same,Log reduction total,"E. coli [3]; 15 μM amotosalen, 365 nm",4.52 log
same,Log reduction from S-59,"E. coli [3]; 15 μM amotosalen, 385 nm",0.49 log
same,Log reduction total,"E. coli [3]; 15 μM amotosalen, 385 nm",1.5 log
same,Log reduction from S-59,"E. coli [3]; 150 μM amotosalen, 265 nm",0.54 log
same,Log reduction total,"E. coli [3]; 150 μM amotosalen, 265 nm",5.01 log
same,Log reduction from S-59,"E. coli [3]; 150 μM amotosalen, 280 nm",0.59 log
same,Log reduction total,"E. coli [3]; 150 μM amotosalen, 280 nm",5.38 log
same,Log reduction from S-59,"E. coli [3]; 150 μM amotosalen, 310 nm",2.29 log
same,Log reduction total,"E. coli [3]; 150 μM amotosalen, 310 nm",6.23 log
same,Log reduction from S-59,"E. coli [3]; 150 μM amotosalen, 325 nm",5.36 log
same,Log reduction total,"E. coli [3]; 150 μM amotosalen, 325 nm",5.70 log
same,Log reduction from S-59,"E. coli [3]; 150 μM amotosalen, 340 nm",4.93 log
same,Log reduction total,"E. coli [3]; 150 μM amotosalen, 340 nm",5.64 log
same,Log reduction from S-59,"E. coli [3]; 150 μM amotosalen, 365 nm",4.90 log
same,Log reduction total,"E. coli [3]; 150 μM amotosalen, 365 nm",5.30 log
same,Log reduction from S-59,"E. coli [3]; 150 μM amotosalen, 385 nm",4.34 log
same,Log reduction total,"E. coli [3]; 150 μM amotosalen, 385 nm",4.95 log
same,photochemical inactivation,"E. coli [3]; summary for bacteria of Example 8, amotosalen+325 nm and amotosalen+340 nm illumination",greater than 4 logs
same,Titer Post-Second,E. coli [4]; UV 1 265 nm then UV 2 325 nm,<−0.11
same,Titer Post-Second,E. coli [4]; UV 1 265 nm then UV 2 340 nm,<−0.11
same,Titer Post-Second,E. coli [4]; UV 1 265 nm then UV 2 365 nm,<−0.11
same,Titer Post-First,E. coli [4]; UV 1 265 nm ~3 J/cm^2 (then 325 nm),3.58
same,Titer Post-First,E. coli [4]; UV 1 265 nm ~3 J/cm^2 (then 340 nm),3.86
same,Titer Post-First,E. coli [4]; UV 1 265 nm ~3 J/cm^2 (then 365 nm),2.95
same,Titer Post-Second,E. coli [4]; UV 1 280 nm then UV 2 325 nm,<−0.11
same,Titer Post-Second,E. coli [4]; UV 1 280 nm then UV 2 340 nm,<−0.11
same,Titer Post-Second,E. coli [4]; UV 1 280 nm then UV 2 365 nm,<−0.11
same,Titer Post-First,E. coli [4]; UV 1 280 nm ~3 J/cm^2 (then 325 nm),3.66
same,Titer Post-First,E. coli [4]; UV 1 280 nm ~3 J/cm^2 (then 340 nm),4.15
same,Titer Post-First,E. coli [4]; UV 1 280 nm ~3 J/cm^2 (then 365 nm),4.11
same,Titer Post-Second,E. coli [4]; UV 1 325 nm then UV 2 265 nm,<−0.11
same,Titer Post-Second,E. coli [4]; UV 1 325 nm then UV 2 280 nm,<−0.11
same,Titer Post-First,E. coli [4]; UV 1 325 nm ~3 J/cm^2 (then 265 nm),<−0.11
same,Titer Post-First,E. coli [4]; UV 1 325 nm ~3 J/cm^2 (then 280 nm),<−0.11
same,Titer Post-Second,E. coli [4]; UV 1 340 nm then UV 2 265 nm,<−0.11
same,Titer Post-Second,E. coli [4]; UV 1 340 nm then UV 2 280 nm,<−0.11
same,Titer Post-First,E. coli [4]; UV 1 340 nm ~3 J/cm^2 (then 265 nm),<−0.11
same,Titer Post-First,E. coli [4]; UV 1 340 nm ~3 J/cm^2 (then 280 nm),<−0.11
same,Titer Post-Second,E. coli [4]; UV 1 365 nm then UV 2 265 nm,<−0.11
same,Titer Post-Second,E. coli [4]; UV 1 365 nm then UV 2 280 nm,<−0.11
same,Titer Post-First,E. coli [4]; UV 1 365 nm ~3 J/cm^2 (then 265 nm),<−0.11
same,Titer Post-First,E. coli [4]; UV 1 365 nm ~3 J/cm^2 (then 280 nm),<−0.11
same,reduction in titer of caliciviruses (FCV),feline calicivirus (FCV),1.7-2.4 log 10
same,Amotosalen concentration,"[5]; 30 μM, PAS/Plasma, Post-UV",0.3 µM
same,Amotosalen concentration,"[5]; 30 μM, PAS/Plasma, Pre-UV",30.5 µM
same,Amotosalen concentration,"[5]; 30 μM, Plasma, Post-UV",1.1 µM
same,Amotosalen concentration,"[5]; 30 μM, Plasma, Pre-UV",32.7 µM
same,Amotosalen concentration,"[5]; 60 μM, PAS/Plasma, Post-UV",0.7 µM
same,Amotosalen concentration,"[5]; 60 μM, PAS/Plasma, Pre-UV",61.2 µM
same,Amotosalen concentration,"[5]; 60 μM, Plasma, Post-UV",2.3 µM
same,Amotosalen concentration,"[5]; 60 μM, Plasma, Pre-UV",62.0 µM
same,Amotosalen concentration,"[5]; 90 μM, PAS/Plasma, Post-UV",1.0 µM
same,Amotosalen concentration,"[5]; 90 μM, PAS/Plasma, Pre-UV",90.5 µM
same,Amotosalen concentration,"[5]; 90 μM, Plasma, Post-UV",4.0 µM
same,Amotosalen concentration,"[5]; 90 μM, Plasma, Pre-UV",89.7 µM
same,Amotosalen concentration,"[5]; 110 μM, PAS/Plasma, Post-UV",1.2 µM
same,Amotosalen concentration,"[5]; 110 μM, PAS/Plasma, Pre-UV",120.7 µM
same,Amotosalen concentration,"[5]; 110 μM, Plasma, Post-UV",5.5 µM
same,Amotosalen concentration,"[5]; 110 μM, Plasma, Pre-UV",105.8 µM
